Measured values reported in US20120172350A1, “HISTAMINE H3 INVERSE AGONISTS AND ANTAGONISTS AND METHODS OF USE THEREOF” (SUNOVION PHARMACEUTICALS INC., priority 2009, published 2012).

System: Sprague-Dawley rats
Assay: Rat EEG assay (wake, REM, non-REM states)
Format: in vivo
Details: for number of wake and non-REM sleep bouts / wake bout duration: hourly bins, EEG; for wake promotion: male Sprague-Dawley rats, dosed in middle of inactive period, first 6 hours post-dosing; for time spent in REM sleep / time spent in non-REM sleep / time spent in wake: relative to vehicle treated animals, 6 hour recording; for normalized power in the 40-60 Hz range (EEG spectral analysis): wake EEG spectra, shift to higher frequencies
Method: The rat EEG assay was designed to measure electrical signals from the brain as a proxy for in vivo biological activity at the H3 receptor.
Specifically, animals were housed in a temperature-controlled recording room under a 12 hour/12 hour light/dark cycle, with food and water available ad libitum. Eight male Sprague-Dawley rats were implanted with chronic recording devices for continuous recordings of electroencephalograph (EEG) via telemetry (Data Sciences Inc). A repeated measures design was employed in which each rat received eight separate dosings of the compound being tested with a minimum of 3 days between doses. […] EEG data were scored visually in 10 second epochs for wake, REM, and non-REM states. Scored data were analyzed and expressed as time spent in each state per hour. Cumulative time spent in wake, non-REM, and REM states were calculated for the 6 hour recording period. To determine whether any of the pharmacological treatments affected the consolidation of behavioral states, the duration and number of bouts for each state were calculated in hourly bins. A “bout” consisted of a minimum of two consecutive 10-second epochs of a given state and ended with any single state change epoch. The EEG spectra during wake and non-REM sleep were analyzed offline with a fast Fourier transform algorithm (NeuroScore software, Data Sciences Inc) on all epochs without a visually detectable artifact. Wake EEG spectra were analyzed in 1 Hz bins. Data were analyzed using two-way repeated-measures ANOVA.
For both compounds, there was an increase in the time spent in wake, a decrease in the time spent in non-REM sleep, and no change in the time spent in REM sleep relative to vehicle treated animals.

Row | SMILES | number of wake and non-REM sleep bouts | wake bout duration | wake promotion | time spent in REM sleep | time spent in non-REM sleep | time spent in wake | normalized power in the 40-60 Hz range (EEG spectral analysis)
1 | c1cn2cc(-c3ccc4c(c3)nc3n4CCCN(C4CCC4)CC3)ccc2n1 [Compound 59, 3-cyclobutyl-10-(imidazo[1,2-a]pyridin-6-yl)-1,2,3,4,5,6-hexahydrobenzo[4,5]imidazo[1,2-a][1,5]diazocine] | decrease | increase | wake promoting | no change | decrease | increase | increase
2 | c1cn2cc(-c3ccc4c(c3)nc3n4CCN4CCCC[C@@H]4C3)ccc2n1 (single isomer, unassigned) [Compound 48] | decrease | increase | wake promoting | no change | decrease | increase | increase
